The source made the active and inactive calls.
Experiments:
NCI-H1975 [1] = assay: Anti-migration activity in human NCI-H1975 cells incubated for 24 hrs by scratch-wound assay; format: functional, cell-based; conditions: dose 5.0 nM, tested as the 2H-labelled form
NCI-H1975 [2] = assay: Induction of DNA damage in human NCI-H1975 cells assessed as increase in pH2AX level upto 10 nM incubated for 2 to 4 hrs by Western blot analysis; format: functional, cell-based; conditions: time 2-4 hrs, tested as the 2H-labelled form
NCI-H1975 [3] = assay: Downregulation of LANCL1 expression in human NCI-H1975 cells; format: functional, cell-based; conditions: tested as the 2H-labelled form
NCI-H1975 [4] = assay: Inhibition of colony formation in human NCI-H1975 cells assessed as reduction in tumor cell number incubated for 24 hrs followed by medium replacement daily without compound measured after 14 days by crystal violet staining based analysis; format: functional; conditions: dose 1-10 nM, tested as the 2H-labelled form
NCI-H1975 [5] = assay: Induction of mitochondrial membrane potential in human NCI-H1975 cells assessed as reduction in red fluorescence at 5 nM by JC-1 dye based analysis; format: functional, cell-based; conditions: tested as the 2H-labelled form
NCI-H1975 [6] = assay: Induction of cell cycle arrest in human NCI-H1975 cells assessed as decrease in cyclin D1 level upto 10 nM incubated for 2 to 4 hrs by Western blot analysis; format: functional, cell-based; conditions: time 2-4 hrs, tested as the 2H-labelled form
NCI-H1975 [7] = assay: Induction of apoptosis in human NCI-H1975 cells assessed as decrease in BCL-2 level upto 10 nM incubated for 2 to 4 hrs by Western blot analysis; format: functional, cell-based; conditions: time 2-4 hrs, tested as the 2H-labelled form
Mus musculus = assay: In vivo inhibition of EGFR phosphorylation in human NCI-H1975 cells xenografted in BALB/c-nu mouse at 15 to 30 mg/kg, po administered daily orally for 21 days by IHC analysis; format: functional, organism-based; conditions: dose 15-30 mg/kg, time 21.0 day, tested as the 2H-labelled form
[8] = biological target: ALK tyrosine kinase receptor (Homo sapiens) (UniProt Q9UM73); assay: Inhibition of ALK in human NCI-H2228 cells assessed as decrease in pERK level upto 10 nM incubated for 2 to 4 hrs by Western blot analysis; format: cell-based; conditions: time 2-4 hrs, tested as the 2H-labelled form
Chain of ALK tyrosine kinase receptor (Homo sapiens) (Q9UM73 19-1620 limits assumed): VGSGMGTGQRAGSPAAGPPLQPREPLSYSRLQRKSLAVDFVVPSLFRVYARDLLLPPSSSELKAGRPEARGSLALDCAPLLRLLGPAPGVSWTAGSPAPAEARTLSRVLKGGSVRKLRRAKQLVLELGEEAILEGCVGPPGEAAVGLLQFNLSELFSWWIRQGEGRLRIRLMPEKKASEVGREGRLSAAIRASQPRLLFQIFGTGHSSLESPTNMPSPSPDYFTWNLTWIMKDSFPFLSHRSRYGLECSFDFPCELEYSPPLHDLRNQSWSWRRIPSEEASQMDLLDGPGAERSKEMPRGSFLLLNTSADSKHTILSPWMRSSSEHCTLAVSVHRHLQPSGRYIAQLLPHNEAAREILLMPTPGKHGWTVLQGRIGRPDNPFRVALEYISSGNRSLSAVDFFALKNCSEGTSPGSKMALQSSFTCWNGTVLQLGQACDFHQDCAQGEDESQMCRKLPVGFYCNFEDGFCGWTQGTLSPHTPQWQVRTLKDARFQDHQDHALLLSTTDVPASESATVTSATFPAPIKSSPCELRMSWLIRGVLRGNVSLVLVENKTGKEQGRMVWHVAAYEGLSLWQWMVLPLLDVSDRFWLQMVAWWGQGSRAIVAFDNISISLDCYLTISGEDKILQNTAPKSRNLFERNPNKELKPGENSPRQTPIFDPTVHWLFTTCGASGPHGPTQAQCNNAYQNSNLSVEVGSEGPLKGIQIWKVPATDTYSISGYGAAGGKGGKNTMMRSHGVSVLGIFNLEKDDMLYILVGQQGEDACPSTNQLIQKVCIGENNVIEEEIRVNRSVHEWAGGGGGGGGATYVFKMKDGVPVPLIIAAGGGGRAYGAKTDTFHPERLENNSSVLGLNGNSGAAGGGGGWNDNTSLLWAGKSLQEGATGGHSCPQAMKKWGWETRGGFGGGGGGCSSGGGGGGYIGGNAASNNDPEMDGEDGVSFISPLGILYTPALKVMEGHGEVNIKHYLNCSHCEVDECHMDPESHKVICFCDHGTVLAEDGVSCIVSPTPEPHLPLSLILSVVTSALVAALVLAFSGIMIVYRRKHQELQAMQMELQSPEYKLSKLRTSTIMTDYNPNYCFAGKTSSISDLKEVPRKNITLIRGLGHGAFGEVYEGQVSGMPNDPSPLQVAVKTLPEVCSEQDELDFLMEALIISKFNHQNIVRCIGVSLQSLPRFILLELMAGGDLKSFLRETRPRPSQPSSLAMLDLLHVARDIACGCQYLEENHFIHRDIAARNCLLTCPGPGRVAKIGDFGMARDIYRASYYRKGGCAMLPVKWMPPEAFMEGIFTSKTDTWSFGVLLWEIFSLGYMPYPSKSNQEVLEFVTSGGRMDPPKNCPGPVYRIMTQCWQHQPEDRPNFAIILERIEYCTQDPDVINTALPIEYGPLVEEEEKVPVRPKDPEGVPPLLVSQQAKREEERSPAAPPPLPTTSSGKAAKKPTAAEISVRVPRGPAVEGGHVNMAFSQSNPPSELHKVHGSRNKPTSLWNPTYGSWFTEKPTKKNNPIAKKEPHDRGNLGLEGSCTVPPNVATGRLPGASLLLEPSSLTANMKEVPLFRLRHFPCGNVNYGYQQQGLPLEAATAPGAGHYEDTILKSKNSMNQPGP

NCI-H1975 [9] = assay: Downregulation of ERAP2 expression in human NCI-H1975 cells; format: functional, cell-based; conditions: tested as the 2H-labelled form
NCI-H1975 [10] = assay: Induction of DNA damage in human NCI-H1975 cells at 1 nM incubated for 24 hrs by immunofluorescence based analysis; format: functional, cell-based; conditions: tested as the 2H-labelled form
[11] = biological target: ALK tyrosine kinase receptor (Homo sapiens) (UniProt Q9UM73); assay: Inhibition of ALK phosphorylation in human NCI-H2228 cells at 25 to 50 nM incubated for 12 hrs by immunofluorescence based analysis; format: cell-based; conditions: dose 25-50 nM, tested as the 2H-labelled form
[12] = biological target: ALK tyrosine kinase receptor (Homo sapiens) (UniProt Q9UM73); assay: Inhibition of ALK phosphorylation in human NCI-H2228 cells upto 10 nM incubated for 2 to 4 hrs by Western blot analysis; format: cell-based; conditions: time 2-4 hrs, tested as the 2H-labelled form
NCI-H1975 [13] = assay: Induction of apoptosis in human NCI-H1975 cells assessed as decrease in BCL-XL level upto 10 nM incubated for 2 to 4 hrs by Western blot analysis; format: functional, cell-based; conditions: time 2-4 hrs, tested as the 2H-labelled form
NCI-H1975 [14] = assay: Anti-migration activity in human NCI-H1975 cells assessed as increase in E-cadherin level upto 10 nM incubated for 2 to 4 hrs by Western blot analysis; format: functional, cell-based; conditions: time 2-4 hrs, tested as the 2H-labelled form
NCI-H1975 [15] = assay: Anti-migration activity in human NCI-H1975 cells assessed as decrease in N-cadherin level upto 10 nM incubated for 2 to 4 hrs by Western blot analysis; format: functional, cell-based; conditions: time 2-4 hrs, tested as the 2H-labelled form
[16] = biological target: ALK tyrosine kinase receptor (Homo sapiens) (UniProt Q9UM73); assay: Inhibition of ALK in human NCI-H2228 cells assessed as decrease in pAKT level upto 10 nM incubated for 2 to 4 hrs by Western blot analysis; format: cell-based; conditions: time 2-4 hrs, tested as the 2H-labelled form
NCI-H1975 [17] = assay: Induction of mitochondrial membrane potential in human NCI-H1975 cells assessed as increase in green fluorescence at 5 nM by JC-1 dye based analysis; format: functional, cell-based; conditions: tested as the 2H-labelled form
NCI-H1975 [18] = assay: Anti-invasive activity in human NCI-H1975 cells incubated for 48 hrs by transwell assay; format: functional, cell-based; conditions: dose 1-10 nM, tested as the 2H-labelled form
NCI-H1975 [19] = assay: Induction of apoptosis in human NCI-H1975 cells assessed as increase in cleaved caspase-3 level upto 10 nM incubated for 2 to 4 hrs by Western blot analysis; format: functional, cell-based; conditions: time 2-4 hrs, tested as the 2H-labelled form
NCI-H1975 [20] = assay: Inhibition of colony formation in human NCI-H1975 cells assessed as reduction in tumor cell size incubated for 24 hrs followed by medium replacement daily without compound measured after 14 days by crystal violet staining based analysis; format: functional; conditions: dose 1-10 nM, tested as the 2H-labelled form
NCI-H1975 [21] = assay: Downregulation of Tomm40 expression in human NCI-H1975 cells; format: functional, cell-based; conditions: tested as the 2H-labelled form

C=CC(=O)Nc1cc(Nc2ncc(Cl)c(Nc3ccccc3[S+]([O-])CC)n2)c(OC)cc1N(C)CCN(C)C (single isomer, unassigned; (-))
active: Activity (NCI-H1975 [1]) Dose-dependent-effect | Activity (NCI-H1975 [2]) | Activity (NCI-H1975 [3]) | inhibition (NCI-H1975 [4]) Dose-dependent-effect | Activity (NCI-H1975 [5]) | Activity (NCI-H1975 [6]) | Activity (NCI-H1975 [7]) | inhibition (Mus musculus) Active; Inhibitory Effect Was Observed Superior To That Of Osimertinib | inhibition [8] | Activity (NCI-H1975 [9]) | Activity (NCI-H1975 [10]) | inhibition [11] | inhibition [12] | Activity (NCI-H1975 [13]) | Activity (NCI-H1975 [14]) | Activity (NCI-H1975 [15]) | inhibition [16] | Activity (NCI-H1975 [17]) | Activity (NCI-H1975 [18]) Dose-dependent-effect | Activity (NCI-H1975 [19]) | inhibition (NCI-H1975 [20]) Dose-dependent-effect | Activity (NCI-H1975 [21])

Source: ChEMBL document CHEMBL6078700, “Synthesis of novel deuterated EGFR/ALK dual-target inhibitors and their activity against non-small cell lung cancer” (Eur J Med Chem, 2025)
